# Reference: publication PMC3136501 (PLoS ONE, 2011)
# Molecular target: T1, human OCT3 (Homo sapiens, UniProt O75751)
# T1 sequence (O75751 1-556): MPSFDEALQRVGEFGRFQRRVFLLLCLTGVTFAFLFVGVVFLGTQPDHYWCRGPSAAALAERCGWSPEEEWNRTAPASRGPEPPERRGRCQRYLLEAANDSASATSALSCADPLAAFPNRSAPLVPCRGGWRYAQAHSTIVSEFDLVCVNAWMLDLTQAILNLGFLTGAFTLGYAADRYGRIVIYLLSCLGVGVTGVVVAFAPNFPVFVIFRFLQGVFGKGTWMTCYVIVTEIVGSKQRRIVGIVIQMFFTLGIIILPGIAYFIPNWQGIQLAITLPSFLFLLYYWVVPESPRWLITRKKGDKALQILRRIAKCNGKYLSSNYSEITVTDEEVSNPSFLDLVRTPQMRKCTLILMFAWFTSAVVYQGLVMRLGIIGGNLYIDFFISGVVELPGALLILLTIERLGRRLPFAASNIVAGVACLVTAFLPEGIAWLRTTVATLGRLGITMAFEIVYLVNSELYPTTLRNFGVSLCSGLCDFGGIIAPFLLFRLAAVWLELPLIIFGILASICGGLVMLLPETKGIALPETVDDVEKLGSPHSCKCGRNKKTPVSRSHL
# Assay: Inhibition of OCT3-mediated metformin uptake in stably transfected HEK cells
# Type: cell-based
# Conditions: for IC50: 5 µM [14C]metformin uptake, 5 min, HEK-OCT3, means ± SE of 3 experiments; for OCT3-mediated metformin uptake at low PPI concentrations: low concentrations of PPI, Figure 3
# Description: SLC22A1 cDNA and SLC22A2 cDNA had been PCR-amplified from human liver and kidney, respectively, as reported elsewhere and cDNAs were provided by the German Cancer Research Center; the study and the use of the tissue were approved by the institutional review board of the German Cancer Center, Heidelberg, Germany. Since the data were analyzed anonymously, and tissues were left-over samples from diagnostic procedures, written informed consent had not been required and obtained. IRB specifically waived the need for consent due to the fact the human tissue material used was fully anonymized. SLC22A3 cDNA was amplified using SLC22A3-TrueClone (Origene, Rockville, MD, USA) as the template. SLC22A1 cDNA was cloned into the expression vector pcDNA3.1/Hygro(-) (Invitrogen, Darmstadt, Germany), SLC22A2 and SLC22A3 cDNA into pcDNA3.1(+) (Invitrogen). Each transporter cDNA was sequenced and the respective deduced amino acid sequence was identical to the published reference protein sequence (OCT1: NP_003048.1; OCT2: NP_003049.2; OCT3: NP_068812.1). The human embryonic kidney 293 (HEK) cell line was obtained from the American Type Culture Collection. HEK cells were grown in DMEM (Sigma) supplemented with 10% fetal bovine serum (Sigma), 100 U⋅ml^−1 penicillin, and 100 µg⋅ml^−1 streptomycin (Lonza, Basel, Switzerland) at 37°C and 5% CO2. HEK cells were transfected with Metafectene Pro (Biontex, München, Germany). Selection of clones stably expressing OCT1 was carried out with 0.5 mg⋅ml^−1 hygromycin as described. Similarly, clones stably expressing OCT2 or OCT3 were selected with 800 µg⋅ml^−1 G418. HEK cells stably transfected with the empty pcDNA3.1(+) vector served as controls (HEK-Co). Cells were incubated with 5 mM butyrate 24 h before use to increase protein levels of recombinant transporters.
# HEK cells (400000 cells/well) were seeded into 24-well cell culture plates (Greiner Bio-One, Frickenhausen, Germany) and grown for 48 h. Cell adherence was improved by coating plates with poly-L-lysine (Biochrom AG, Berlin, Germany) prior to cell plating. All uptake studies were carried out at 37°C as described. For uptake measurements, cells were firstly washed with uptake buffer (145 mM NaCl, 5 mM hydroxyethylpiperazine ethanesulfonic acid, 3 mM KCl, 1 mM CaCl2, 0.5 mM MgCl2, 5 mM glucose, pH 7.4, [46]) prewarmed to 37°C. […] Uptake was stopped at indicated time points by removing the uptake buffer and immediately washing the cells 3 times with ice-cold uptake buffer. Cells were lysed with 0.2% SDS and intracellular radioactivity was determined by liquid scintillation counting (Hidex 300SL TDCR liquid scintillation counter, Turku, Finland). For measuring inhibition of OCT-mediated metformin uptake by PPIs, 5 µM [^14C]metformin uptake was measured in the presence of different PPI concentrations and stopped after 5 min (OCT1, OCT3) or 5 sec (OCT2).
# OCT-specific metformin uptake was obtained by subtracting metformin uptake in the presence of 2 mM unlabeled 1-methyl-4-phenylpyridinium (MPP) from that in its absence. […] OCT-specific metformin uptake in the presence of a PPI was then calculated as percentage of that in the absence of the respective PPI (100% uninhibited). For each PPI concentration, 3 individual experiments each with 3 parallel measurements were performed. Apparent IC50 values for inhibition of metformin uptake by PPIs were calculated for each individual experiment by fitting the values to the Hill equation using GraphPad Prism 4 (GraphPad Software Inc., La Jolla, CA, USA). Values in Table 1 are given as the means ± SE of the 3 individual experiments.
compound,measurement,setting,value
"C[n+]1ccc(-c2ccccc2)cc1 [MPP, 1-methyl-4-phenylpyridinium]",Metformin uptake by HEK-OCT3 in the presence of MPP,"5 µM metformin, 2 mM unlabeled MPP",almost completely absent
Cc1c(OCC(F)(F)F)ccnc1C[S+]([O-])c1nc2ccccc2[nH]1 (stereo not drawn) [Lansoprazole],IC50,,3.1 ± 1.3 µM
COc1ccc2[nH]c([S+]([O-])Cc3ncc(C)c(OC)c3C)nc2c1 (stereo not drawn) [Omeprazole],IC50,,22 ± 2.2 µM
COc1ccnc(C[S+]([O-])c2nc3ccc(OC(F)F)cc3[nH]2)c1OC (stereo not drawn) [Pantoprazole],IC50,,22.9 ± 5.2 µM
same,OCT3-mediated metformin uptake at low PPI concentrations,,activated
COCCCOc1ccnc(C[S+]([O-])c2nc3ccccc3[nH]2)c1C (stereo not drawn) [Rabeprazole],IC50,,3 ± 0.8 µM
same,OCT3-mediated metformin uptake at low PPI concentrations,,activated
COc1ccc2[nH]c([S+]([O-])Cc3ncc(C)c(OC)c3C)nc2n1 (stereo not drawn) [Tenatoprazole],IC50,,14.7 ± 2.4 µM
same,OCT3-mediated metformin uptake at low PPI concentrations,,activated
